Experimental data as given in article PMC4979471 (Cell Death Discovery, 2015).
Where two headings read alike, the source gives them in different places.

Legend:
Test in all cases: Kinase selectivity, P33-radiolabeled assay
Type in all cases: biochemical
Conditions in all cases: 10 μM ATP
[1] = molecular target: T1, PAK5 (Homo sapiens, UniProt Q9P286)
T1 construct: purchased Reaction Biology Corp
Summary of the method: (§1)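 ATP at 10 μM; test article at 10 μM, single point, two replicates. Output is activity as % of DMSO.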

[2] = molecular target: T2, TTBK1 (Homo sapiens, UniProt Q5TCY1)
T2 construct: purchased Reaction Biology Corp
T2 sequence (Q5TCY1 whole entry): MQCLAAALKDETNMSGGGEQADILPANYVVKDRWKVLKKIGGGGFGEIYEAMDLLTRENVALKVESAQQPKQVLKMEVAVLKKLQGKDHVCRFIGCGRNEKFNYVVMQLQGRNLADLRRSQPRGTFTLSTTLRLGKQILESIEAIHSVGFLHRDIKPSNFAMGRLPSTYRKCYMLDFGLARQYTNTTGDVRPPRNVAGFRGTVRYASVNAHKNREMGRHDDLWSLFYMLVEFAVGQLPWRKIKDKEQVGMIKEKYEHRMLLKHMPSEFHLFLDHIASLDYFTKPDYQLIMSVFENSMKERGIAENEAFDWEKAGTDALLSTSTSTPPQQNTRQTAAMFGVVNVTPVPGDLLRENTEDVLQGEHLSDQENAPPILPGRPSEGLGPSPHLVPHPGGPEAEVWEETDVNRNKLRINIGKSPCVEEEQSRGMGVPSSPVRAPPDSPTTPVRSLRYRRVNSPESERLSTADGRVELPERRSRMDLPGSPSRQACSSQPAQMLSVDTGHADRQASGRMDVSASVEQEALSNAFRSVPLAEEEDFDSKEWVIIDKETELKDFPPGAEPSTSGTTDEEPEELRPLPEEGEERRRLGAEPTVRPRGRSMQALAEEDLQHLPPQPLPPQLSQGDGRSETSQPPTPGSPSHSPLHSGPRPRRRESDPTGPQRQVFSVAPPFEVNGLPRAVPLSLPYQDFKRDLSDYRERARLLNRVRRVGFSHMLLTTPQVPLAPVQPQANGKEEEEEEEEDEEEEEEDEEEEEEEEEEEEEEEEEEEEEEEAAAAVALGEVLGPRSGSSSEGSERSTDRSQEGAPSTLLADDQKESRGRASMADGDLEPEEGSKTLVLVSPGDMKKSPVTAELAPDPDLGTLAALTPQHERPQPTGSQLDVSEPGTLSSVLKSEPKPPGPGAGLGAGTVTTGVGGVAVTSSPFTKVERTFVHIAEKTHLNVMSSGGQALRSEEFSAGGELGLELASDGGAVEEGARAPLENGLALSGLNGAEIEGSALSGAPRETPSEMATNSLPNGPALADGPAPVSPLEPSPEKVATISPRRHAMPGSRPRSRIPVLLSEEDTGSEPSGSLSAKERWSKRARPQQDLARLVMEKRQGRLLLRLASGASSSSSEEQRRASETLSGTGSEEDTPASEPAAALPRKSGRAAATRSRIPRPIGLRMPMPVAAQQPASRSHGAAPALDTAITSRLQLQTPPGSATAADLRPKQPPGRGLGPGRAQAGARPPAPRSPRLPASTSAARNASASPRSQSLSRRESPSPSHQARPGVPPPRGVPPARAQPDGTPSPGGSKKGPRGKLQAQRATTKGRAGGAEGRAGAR
Summary of the method: as §1

[3] = molecular target: T3, EPHA7 (Homo sapiens, UniProt Q15375)
T3 construct: purchased Reaction Biology Corp
T3 sequence (Q15375 28-998): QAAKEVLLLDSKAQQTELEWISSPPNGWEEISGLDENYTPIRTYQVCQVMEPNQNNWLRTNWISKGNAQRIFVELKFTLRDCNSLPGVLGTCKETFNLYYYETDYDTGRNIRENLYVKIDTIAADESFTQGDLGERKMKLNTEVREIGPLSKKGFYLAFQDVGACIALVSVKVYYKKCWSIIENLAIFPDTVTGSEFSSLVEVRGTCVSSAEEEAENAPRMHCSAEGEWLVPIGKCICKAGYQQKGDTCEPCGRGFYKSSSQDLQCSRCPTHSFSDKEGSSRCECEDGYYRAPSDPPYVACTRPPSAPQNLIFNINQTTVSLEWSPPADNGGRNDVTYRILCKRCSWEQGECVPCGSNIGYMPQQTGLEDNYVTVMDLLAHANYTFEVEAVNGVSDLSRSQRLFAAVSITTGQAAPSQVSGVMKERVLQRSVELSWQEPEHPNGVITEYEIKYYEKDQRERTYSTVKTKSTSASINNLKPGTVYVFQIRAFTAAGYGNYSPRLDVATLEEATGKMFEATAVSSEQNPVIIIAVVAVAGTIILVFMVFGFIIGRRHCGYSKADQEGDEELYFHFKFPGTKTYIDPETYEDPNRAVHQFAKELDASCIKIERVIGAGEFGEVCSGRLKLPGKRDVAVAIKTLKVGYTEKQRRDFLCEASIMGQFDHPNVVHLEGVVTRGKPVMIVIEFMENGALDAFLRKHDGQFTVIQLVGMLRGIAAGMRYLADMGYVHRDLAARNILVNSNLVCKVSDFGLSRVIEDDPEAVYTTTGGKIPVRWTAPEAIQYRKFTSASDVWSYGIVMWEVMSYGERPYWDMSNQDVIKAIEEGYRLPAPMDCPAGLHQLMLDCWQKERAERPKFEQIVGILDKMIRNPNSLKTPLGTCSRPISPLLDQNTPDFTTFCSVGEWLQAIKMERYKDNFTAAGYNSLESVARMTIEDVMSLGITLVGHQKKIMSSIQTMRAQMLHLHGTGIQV
Summary of the method: as §1

[4] = molecular target: T4, PAK6 (Homo sapiens, UniProt Q9NQU5)
T4 construct: purchased Reaction Biology Corp
Summary of the method: as §1

[5] = molecular target: T5, CDK3/cyclin E (Homo sapiens, UniProt Q00526)
T5 construct: purchased Reaction Biology Corp
Summary of the method: as §1

[6] = molecular target: T6, WNK1 (Homo sapiens, UniProt Q9H4A3)
T6 construct: purchased Reaction Biology Corp
Summary of the method: as §1

[7] = molecular target: T7, HCK (Homo sapiens, UniProt P08631)
T7 construct: purchased Reaction Biology Corp
Summary of the method: as §1

[8] = molecular target: T8, AXL (Homo sapiens, UniProt P30530)
T8 construct: purchased Reaction Biology Corp
T8 sequence (P30530 26-894): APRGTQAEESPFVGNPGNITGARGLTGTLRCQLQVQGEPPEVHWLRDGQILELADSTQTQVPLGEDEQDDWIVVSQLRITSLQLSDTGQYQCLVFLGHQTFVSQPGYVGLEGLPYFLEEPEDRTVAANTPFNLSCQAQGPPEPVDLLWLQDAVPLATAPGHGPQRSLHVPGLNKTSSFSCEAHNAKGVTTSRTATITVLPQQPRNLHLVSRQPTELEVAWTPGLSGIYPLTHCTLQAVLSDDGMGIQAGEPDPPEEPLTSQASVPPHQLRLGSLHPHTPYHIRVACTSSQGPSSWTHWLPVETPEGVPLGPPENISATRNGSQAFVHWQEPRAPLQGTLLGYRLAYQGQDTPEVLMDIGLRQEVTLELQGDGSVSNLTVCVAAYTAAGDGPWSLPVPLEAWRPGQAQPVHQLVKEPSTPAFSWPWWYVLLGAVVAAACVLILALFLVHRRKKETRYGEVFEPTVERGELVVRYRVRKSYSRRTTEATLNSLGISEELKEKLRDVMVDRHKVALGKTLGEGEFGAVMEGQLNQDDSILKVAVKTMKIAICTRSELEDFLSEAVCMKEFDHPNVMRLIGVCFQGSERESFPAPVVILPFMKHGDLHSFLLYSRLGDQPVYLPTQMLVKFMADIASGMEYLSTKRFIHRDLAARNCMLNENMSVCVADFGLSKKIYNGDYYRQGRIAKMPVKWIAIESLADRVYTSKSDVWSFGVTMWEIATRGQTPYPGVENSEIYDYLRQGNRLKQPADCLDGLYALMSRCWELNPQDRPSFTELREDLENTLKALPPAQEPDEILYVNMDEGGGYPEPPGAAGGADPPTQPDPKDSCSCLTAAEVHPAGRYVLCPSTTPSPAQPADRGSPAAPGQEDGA
Summary of the method: as §1

[9] = molecular target: T9, CK1d (Homo sapiens, UniProt P48730)
T9 construct: purchased Reaction Biology Corp
T9 sequence (P48730 whole entry): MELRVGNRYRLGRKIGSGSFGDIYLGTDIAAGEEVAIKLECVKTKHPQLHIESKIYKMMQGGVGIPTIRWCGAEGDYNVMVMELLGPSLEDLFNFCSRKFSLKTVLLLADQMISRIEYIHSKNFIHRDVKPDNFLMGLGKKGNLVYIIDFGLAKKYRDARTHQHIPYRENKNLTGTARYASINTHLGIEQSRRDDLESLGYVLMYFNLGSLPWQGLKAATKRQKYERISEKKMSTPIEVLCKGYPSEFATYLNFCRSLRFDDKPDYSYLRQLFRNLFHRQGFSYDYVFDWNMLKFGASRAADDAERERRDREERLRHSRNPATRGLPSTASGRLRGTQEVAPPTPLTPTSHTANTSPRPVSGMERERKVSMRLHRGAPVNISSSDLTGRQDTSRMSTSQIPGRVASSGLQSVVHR
Summary of the method: as §1

[10] = molecular target: T10, RET (Homo sapiens, UniProt P07949)
T10 construct: purchased Reaction Biology Corp
T10 sequence (P07949 29-1114): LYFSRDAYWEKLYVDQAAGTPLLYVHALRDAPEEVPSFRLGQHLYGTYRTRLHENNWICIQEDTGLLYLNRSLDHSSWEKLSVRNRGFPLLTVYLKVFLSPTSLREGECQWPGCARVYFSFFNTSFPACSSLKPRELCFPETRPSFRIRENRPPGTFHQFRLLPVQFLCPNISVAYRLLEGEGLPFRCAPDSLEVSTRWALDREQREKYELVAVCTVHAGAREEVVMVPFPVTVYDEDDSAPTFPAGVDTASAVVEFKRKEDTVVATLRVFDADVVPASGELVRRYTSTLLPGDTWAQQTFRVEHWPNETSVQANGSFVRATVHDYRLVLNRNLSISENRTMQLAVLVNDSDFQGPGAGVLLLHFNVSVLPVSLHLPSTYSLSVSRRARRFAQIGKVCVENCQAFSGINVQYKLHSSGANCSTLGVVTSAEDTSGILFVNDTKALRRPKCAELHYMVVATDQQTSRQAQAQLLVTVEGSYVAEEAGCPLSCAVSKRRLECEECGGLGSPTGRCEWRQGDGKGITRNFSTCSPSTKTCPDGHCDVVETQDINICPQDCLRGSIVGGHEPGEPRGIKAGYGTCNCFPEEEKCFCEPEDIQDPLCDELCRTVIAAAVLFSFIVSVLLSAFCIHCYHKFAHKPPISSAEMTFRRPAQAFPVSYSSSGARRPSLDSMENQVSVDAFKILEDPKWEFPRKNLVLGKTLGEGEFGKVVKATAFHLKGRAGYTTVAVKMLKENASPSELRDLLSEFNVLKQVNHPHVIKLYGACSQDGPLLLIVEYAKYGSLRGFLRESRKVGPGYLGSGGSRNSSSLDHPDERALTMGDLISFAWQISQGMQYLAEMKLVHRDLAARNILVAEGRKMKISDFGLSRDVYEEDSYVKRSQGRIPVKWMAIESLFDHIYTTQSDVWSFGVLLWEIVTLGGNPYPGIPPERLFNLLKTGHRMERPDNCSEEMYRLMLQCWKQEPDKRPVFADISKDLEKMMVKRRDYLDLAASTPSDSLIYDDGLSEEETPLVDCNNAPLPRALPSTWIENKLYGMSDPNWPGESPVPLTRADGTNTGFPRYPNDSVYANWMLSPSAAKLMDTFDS
Summary of the method: as §1

[11] = molecular target: T11, PKG2/PRKG2 (Homo sapiens, UniProt Q13237)
T11 construct: purchased Reaction Biology Corp
T11 sequence (Q13237 1-762): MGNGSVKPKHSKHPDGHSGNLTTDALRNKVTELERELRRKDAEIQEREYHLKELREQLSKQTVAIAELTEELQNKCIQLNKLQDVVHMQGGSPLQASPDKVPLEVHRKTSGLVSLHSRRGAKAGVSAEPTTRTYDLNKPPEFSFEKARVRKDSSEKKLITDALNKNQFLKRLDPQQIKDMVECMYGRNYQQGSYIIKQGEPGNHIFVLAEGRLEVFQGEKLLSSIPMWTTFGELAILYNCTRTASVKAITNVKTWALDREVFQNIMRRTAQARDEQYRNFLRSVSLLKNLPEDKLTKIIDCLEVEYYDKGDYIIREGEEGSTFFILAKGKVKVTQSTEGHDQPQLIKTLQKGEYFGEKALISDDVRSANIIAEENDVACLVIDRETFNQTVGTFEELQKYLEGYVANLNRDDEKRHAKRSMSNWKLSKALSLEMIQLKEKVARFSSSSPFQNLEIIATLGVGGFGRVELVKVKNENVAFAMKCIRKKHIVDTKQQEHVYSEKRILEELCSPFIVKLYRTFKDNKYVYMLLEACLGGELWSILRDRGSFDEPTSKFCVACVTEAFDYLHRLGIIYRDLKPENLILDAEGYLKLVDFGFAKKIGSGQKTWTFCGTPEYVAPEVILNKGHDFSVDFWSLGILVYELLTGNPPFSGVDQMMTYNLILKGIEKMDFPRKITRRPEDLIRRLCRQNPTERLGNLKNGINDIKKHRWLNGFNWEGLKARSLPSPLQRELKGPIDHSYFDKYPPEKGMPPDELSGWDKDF
Summary of the method: as §1

[12] = molecular target: T12, AKT3 (Homo sapiens, UniProt Q9Y243)
T12 construct: purchased Reaction Biology Corp
T12 sequence (Q9Y243 whole entry): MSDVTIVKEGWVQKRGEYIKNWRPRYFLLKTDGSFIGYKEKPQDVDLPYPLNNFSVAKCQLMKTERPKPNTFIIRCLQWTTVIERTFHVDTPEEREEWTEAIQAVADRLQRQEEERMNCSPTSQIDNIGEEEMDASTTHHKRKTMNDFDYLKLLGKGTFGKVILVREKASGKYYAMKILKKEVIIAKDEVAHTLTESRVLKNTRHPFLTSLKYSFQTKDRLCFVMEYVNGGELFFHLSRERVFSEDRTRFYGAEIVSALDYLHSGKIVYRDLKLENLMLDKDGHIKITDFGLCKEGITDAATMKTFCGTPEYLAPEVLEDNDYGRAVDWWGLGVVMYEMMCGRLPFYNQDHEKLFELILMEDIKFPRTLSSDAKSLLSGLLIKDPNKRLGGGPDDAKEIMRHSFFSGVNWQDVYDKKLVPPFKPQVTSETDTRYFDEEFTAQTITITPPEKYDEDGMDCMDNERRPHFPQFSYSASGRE
Summary of the method: as §1

[13] = molecular target: T13, NEK7 (Homo sapiens, UniProt Q8TDX7)
T13 construct: purchased Reaction Biology Corp
T13 sequence (Q8TDX7 whole entry): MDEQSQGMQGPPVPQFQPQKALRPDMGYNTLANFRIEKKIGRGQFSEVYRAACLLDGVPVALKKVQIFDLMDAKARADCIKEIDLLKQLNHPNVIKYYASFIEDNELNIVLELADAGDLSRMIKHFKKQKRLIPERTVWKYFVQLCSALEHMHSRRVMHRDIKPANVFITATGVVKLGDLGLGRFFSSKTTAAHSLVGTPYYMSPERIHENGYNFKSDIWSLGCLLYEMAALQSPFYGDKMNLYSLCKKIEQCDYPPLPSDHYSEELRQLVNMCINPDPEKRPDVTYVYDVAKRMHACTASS
Summary of the method: as §1

[14] = molecular target: T14, DYRK1B (Homo sapiens, UniProt Q9Y463)
T14 construct: purchased Reaction Biology Corp
Summary of the method: as §1

[15] = read-out: % Enzyme Activity (relative to DMSO controls) AVG
[16] = read-out: % Enzyme Activity (relative to DMSO controls) Data 1
[17] = read-out: % Enzyme Activity (relative to DMSO controls) Data 2

CC(C)(C)C(=O)N1N=CC[C@H]1c1ccccc1 [GSK′963]
remaining activity at 10 µM [1, 15]: 124% | remaining activity at 10 µM [1, 16]: 119% | remaining activity at 10 µM [1, 17]: 128% | remaining activity at 10 µM [2, 15]: 110% | remaining activity at 10 µM [2, 16]: 109% | remaining activity at 10 µM [2, 17]: 111% | remaining activity at 10 µM [3, 15]: 111% | remaining activity at 10 µM [3, 16]: 109% | remaining activity at 10 µM [3, 17]: 112% | remaining activity at 10 µM [4, 15]: 97.1% | remaining activity at 10 µM [4, 16]: 99.6% | remaining activity at 10 µM [4, 17]: 94.7% | remaining activity at 10 µM [5, 15]: 106% | remaining activity at 10 µM [5, 16]: 105% | remaining activity at 10 µM [5, 17]: 107% | remaining activity at 10 µM [6, 15]: 81.7% | remaining activity at 10 µM [6, 16]: 78.3% | remaining activity at 10 µM [6, 17]: 85.1% | remaining activity at 10 µM [7, 15]: 96.5% | remaining activity at 10 µM [7, 16]: 95.5% | remaining activity at 10 µM [7, 17]: 97.6% | remaining activity at 10 µM [8, 15]: 92.9% | remaining activity at 10 µM [8, 16]: 91.2% | remaining activity at 10 µM [8, 17]: 94.6% | remaining activity at 10 µM [9, 15]: 96.7% | remaining activity at 10 µM [9, 16]: 94.1% | remaining activity at 10 µM [9, 17]: 99.2% | remaining activity at 10 µM [10, 15]: 108% | remaining activity at 10 µM [10, 16]: 107% | remaining activity at 10 µM [10, 17]: 108% | remaining activity at 10 µM [11, 15]: 105% | remaining activity at 10 µM [11, 16]: 98.2% | remaining activity at 10 µM [11, 17]: 112% | remaining activity at 10 µM [12, 15]: 102% | remaining activity at 10 µM [12, 16]: 100% | remaining activity at 10 µM [12, 17]: 103% | remaining activity at 10 µM [13, 15]: 98.6% | remaining activity at 10 µM [13, 16]: 98.1% | remaining activity at 10 µM [13, 17]: 99% | remaining activity at 10 µM [14, 15]: 102% | remaining activity at 10 µM [14, 16]: 103% | remaining activity at 10 µM [14, 17]: 101%
